Assay results: PubChem BioAssay AID1648 (Sanford-Burnham Center for Chemical Genomics, 2009)
Activity calls are given as the source filed them. The rule behind the calls is not given here.

These compounds were tested against Serine/threonine-protein kinase mTOR (Homo sapiens) (UniProt P42345) (assay: mTOR FRB domain ligand binding – biophysical, NMR (AID 1648)). Settings: NMR binding to FRB domain, chemical shift.
Sequence of Serine/threonine-protein kinase mTOR (Homo sapiens) (P42345 2015-2114): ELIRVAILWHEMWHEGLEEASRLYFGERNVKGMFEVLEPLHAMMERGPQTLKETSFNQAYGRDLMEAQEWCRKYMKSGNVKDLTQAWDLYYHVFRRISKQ

Compound	Kd
CC(=O)NC(NC(C)=O)c1ccccc1	> 4 mM (inactive)
Nc1cc(=O)[nH]c(=S)n1CCc1ccccc1	> 4 mM (inactive)
COc1ccc(Cl)cc1NC(=O)C(N)=O	> 4 mM (inactive)
O=C(NCc1ccccc1F)c1cccs1	> 4 mM (inactive)
Cc1nc2ccccc2c(=O)n1-c1cccc(O)c1	> 4 mM (inactive)
Cn1nnc2cc(CO)ccc21	> 4 mM (inactive)
COc1c(-c2coc3cc4c(cc3c2=O)CC(OC(C)=O)C(C)(C)O4)ccc2c1C=CC(C)(C)O2 (centres undefined)	> 4 mM (inactive)
NC(=O)C1CCN(CN2C(=O)c3ccccc3C2=O)CC1	> 4 mM (inactive)
C[C@@H]1C(=O)O[C@H]2[C@H]1CC[C@@]1(C)C=CC(=O)[C@@]3(C)O[C@@]213	> 4 mM (inactive)
C=C(C)CSc1nc2nc(C)cc(C)n2n1	> 4 mM (inactive)
O=C(CC1NCCNC1=O)Nc1ccccc1 (centres undefined)	> 4 mM (inactive)
O=C(O)c1ccccc1N1CCOCC1	> 4 mM (inactive)
Cc1cc2ncc(C(=O)Nc3ccccc3)c(C)n2n1	> 4 mM (inactive)
CCCNC(=O)c1cnc2n(c1=O)CCS2	> 4 mM (inactive)
Nc1ncnc2nc(SCCN3CCCCC3)[nH]c12	> 4 mM (inactive)
COC(=O)c1ccc(Cl)c(NC(C)=O)c1	> 4 mM (inactive)
Cc1nnc2sc(-c3csc4c3CCCC4)nn12	> 4 mM (inactive)
c1ccc(-n2nnnc2-n2cnc3ccccc32)cc1	> 4 mM (inactive)
Cc1cc(O)c2c(c1)C(=O)c1cccc(O)c1C2=O	> 4 mM (inactive)
O=C(O)CC1Sc2ccccc2NC1=O (centres undefined)	> 4 mM (inactive)
Cc1cc(CN2C(=O)c3ccccc3C2=O)on1	> 4 mM (inactive)
Cc1nnc(N2CCc3ccccc3C2)[nH]c1=O	> 4 mM (inactive)
N=Nc1c(O)[nH]c2ccccc12	> 4 mM (inactive)
Cc1nc(-c2cccc(C(=O)O)c2)cs1	> 4 mM (inactive)

Compound	Kd
CC(=O)c1c(C)nc(C)nc1NC(=O)C(C)C	> 4 mM (inactive)
COc1cc(-c2coc3cc(OC)c(OC)c(OC)c3c2=O)cc(OC)c1OC	> 4 mM (inactive)
O=C1c2ccccc2C(=O)N1/N=C/c1ccc[nH]1	> 4 mM (inactive)
Fc1ccc(N2CCNCC2)cc1	> 4 mM (inactive)
CN1CCCCC1c1ccc(-c2cccnc2)nc1 (centres undefined)	> 4 mM (inactive)
CC(C)CCCC(C)[C@H]1CCC2C3CC=C4CC(=O)CC[C@]4(C)C3CC[C@@]21C (some centres undefined)	> 4 mM (inactive)
CC1=C(/C=C/C(C)=C/C=C/C(C)=C/C=C/C=C(C)/C=C/C=C(C)/C=C/C2=C(C)CCCC2(C)C)C(C)(C)CCC1	> 4 mM (inactive)
CC(C1OC(C)(C)C(O)C1O)[C@@H]1CC[C@]2(C)C3=CCC4C(C)(C)C(=O)CC[C@]4(C)C3CC[C@@]12C (some centres undefined)	> 4 mM (inactive)
NCc1oc(-c2ccccc2)cc1C(=O)O	> 4 mM (inactive)
CN1CC(=O)N=C1N	> 4 mM (inactive)
O=CN1CCN(C(=O)c2ccc(F)cc2)CC1	> 4 mM (inactive)
CC(=O)O[C@H]1CC[C@@]2(C)C(C[C@@H](OC(C)=O)[C@@]3(C)C4=CC(=O)O[C@@H](c5ccoc5)[C@]4(C)CCC23)C1(C)C (some centres undefined)	> 4 mM (inactive)
CC12CC[C@H](CC1=O)C2(C)C	> 4 mM (inactive)
Cc1ccc(-c2c(C)n([O-])c3c([n+]2=O)CCCC3)o1	> 4 mM (inactive)
NC(=S)NC1CCS(=O)(=O)C1 (centres undefined)	> 4 mM (inactive)
CC(=O)NC(=S)Nc1cccc(C(=O)O)c1C	> 4 mM (inactive)
O=C(c1cc2ccccc2o1)N1CCCCCC1	> 4 mM (inactive)
Cn1nnc2cc(C(=O)Nc3cccnc3)ccc21	> 4 mM (inactive)
NC(C(=O)O)C(O)C(=O)O (centres undefined)	> 4 mM (inactive)
O=C(Nc1cccnc1)c1cccs1	> 4 mM (inactive)
CCNC(CC(=O)Nc1cccc([N+](=O)[O-])c1)C(=O)O (centres undefined)	> 4 mM (inactive)
CC(C)=CCc1c2c(c(O)c3c(=O)c(O)c(-c4ccccc4)oc13)C=CC(C)(C)O2	> 4 mM (inactive)
CC1(C)Oc2ccc(N)cc2O1	> 4 mM (inactive)
CC1(C)CC2C1CCC1(C)OC2(C)CCC1O (centres undefined)	> 4 mM (inactive)

Compound	Kd
CON(C)C(=O)Nc1ccc(Cl)cc1	> 4 mM (inactive)
CCOc1cc(S(=O)(=O)N2CCOCC2)ccc1F	> 4 mM (inactive)
Nc1ncnc2nc[nH]c12	> 4 mM (inactive)
O=C(CCc1n[nH]c(=O)[nH]c1=O)NCc1ccccc1	> 4 mM (inactive)
CSc1ccccc1NC(=O)c1ccc(C)o1	> 4 mM (inactive)
COC(=O)c1cnccc1C(F)(F)F	> 4 mM (inactive)
CC(C)=CC(=O)Nc1ccccc1C(N)=O	> 4 mM (inactive)
Cc1ncc(C[n+]2csc3ccccc32)c(N)n1	> 4 mM (inactive)
COc1cc(-c2coc3cc(OCc4ccccc4)c(OC)c(O)c3c2=O)cc(O)c1OC	> 4 mM (inactive)
CCOC(=O)c1c(C)n([O-])c2ccccc2[n+]1=O	> 4 mM (inactive)
C=C[C@H]1CN2CC[C@H]1C[C@@H]2[C@H](O)c1ccnc2ccccc12	> 4 mM (inactive)
O=C(O)c1ncoc1-c1ccccc1	> 4 mM (inactive)
CC(=O)OC[C@H]1O[C@@H](Oc2cc(OC(C)=O)c3c(=O)cc(-c4ccc(OC(C)=O)cc4)oc3c2)[C@H](OC(C)=O)[C@@H](OC(C)=O)[C@@H]1OC(C)=O	> 4 mM (inactive)
Cn1nccc1N	> 4 mM (inactive)
O=c1[nH]c2ccccc2c(=O)n1CCCO	> 4 mM (inactive)
Cc1cc(C(=O)c2c(C)nn(C)c2Cl)n(C)n1	> 4 mM (inactive)
O=C(Nc1ncccn1)c1cccc(F)c1	> 4 mM (inactive)
COc1cc(O)cc(/C=C/c2ccccc2)c1	> 4 mM (inactive)
Nc1cc(F)cc(F)c1	> 4 mM (inactive)
COc1ccc(CN2CCC(O)CC2)c(O)c1	> 4 mM (inactive)
Cc1csc2nc(=O)c3ccccc3n12	> 4 mM (inactive)
CCCc1ncc(C(O)c2cccc3ccccc23)n1C (centres undefined)	> 4 mM (inactive)
Cc1scc(C(=O)Nc2ccon2)c1-c1ccccc1	> 4 mM (inactive)
O=C(O)C1CN2CCC1CC2 (centres undefined)	> 4 mM (inactive)

Compound	Kd
CC(=O)NC(O)C(=O)c1cccs1 (centres undefined)	> 4 mM (inactive)
Cc1cc(C)c(C(N)=O)c(=S)[nH]1	> 4 mM (inactive)
COc1c(CC=C(C)C)c2c(c3oc(=O)c(-c4ccc(O)cc4)c(O)c13)C=CC(C)(C)O2	> 4 mM (inactive)
O=C1O[C@H](C(O)CO)C(O)=C1O (some centres undefined)	> 4 mM (inactive)
c1cncc(C(N2CCOCC2)N2CCOCC2)c1	> 4 mM (inactive)
NC(=O)CC1Nc2cccc3cccc(c23)NC1=O (centres undefined)	> 4 mM (inactive)
Cc1cc(SCCF)n2ncnc2n1	> 4 mM (inactive)
CC(C)CCCC(C)[C@H]1CCC2C3CC[C@H]4CC(=O)CC[C@]4(C)C3CC[C@@]21C (some centres undefined)	> 4 mM (inactive)
O=C(CSc1cccc2cccnc12)N1CCCC1	> 4 mM (inactive)
Nc1[nH]c(=S)ncc1S(=O)(=O)c1ccccc1	> 4 mM (inactive)
OCc1csc(-c2ccccc2)n1	> 4 mM (inactive)
O=C(Nn1cnnc1)c1ccccc1Cl	> 4 mM (inactive)
CC(=O)Nc1ccccc1OCC(N)=O	> 4 mM (inactive)
O=C1CCC(C(=O)NCc2cccnc2)N1 (centres undefined)	> 4 mM (inactive)
CN(C)S(=O)(=O)c1cccc(N)c1	> 4 mM (inactive)
COC1=C(OC)C(=O)C(C/C=C(\C)CC/C=C(\C)CC/C=C(\C)CC/C=C(/C)CC/C=C(\C)CC/C=C(\C)CC/C=C(\C)CC/C=C(\C)CC/C=C(\C)CCC=C(C)C)=C(C)C1=O	> 4 mM (inactive)
C[n+]1ccn(C/C(N)=N/O)c1	> 4 mM (inactive)
CC(NC(=O)C1CCCCC1)C(=O)NC1=NCCS1 (centres undefined)	> 4 mM (inactive)
NC(=O)CC[C@H](N)C(=O)O	> 4 mM (inactive)
C=CCn1c(-c2ccc(O)cc2)n[nH]c1=S	> 4 mM (inactive)
Cc1nccn1CCC(=O)O	> 4 mM (inactive)
COc1c2ccoc2cc2oc(C)cc(=O)c12	> 4 mM (inactive)
Cc1c(C(=O)NCc2ccccn2)oc2ccccc12	> 4 mM (inactive)
COc1ccc(C2CC(=O)c3ccc(OC)cc3O2)cc1 (centres undefined)	> 4 mM (inactive)

Compound	Kd
O=C(NCc1ccccn1)c1ccc(Cl)cc1Cl	> 4 mM (inactive)
O=C(NCc1cccs1)c1ccncc1	> 4 mM (inactive)
O=C(Nc1ccc2c(c1)OCCO2)c1c(F)cccc1F	> 4 mM (inactive)
COc1ccccc1NC(=O)c1ccc(Br)o1	> 4 mM (inactive)
O=C(NCc1cccnc1)c1ccccn1	> 4 mM (inactive)
COc1cc(OC)c2c(=O)c(-c3ccc4c(c3)OCO4)coc2c1	> 4 mM (inactive)
O=c1c(-c2cc(O)c(O)c(O)c2)coc2cc(O)c(O)c(O)c12	> 4 mM (inactive)
CC(=O)c1c(O)cc(O)cc1O	> 4 mM (inactive)
CC(=O)Nc1ccc2c(c1)CCCC2=O	> 4 mM (inactive)
CC(=O)Nc1sccc1C(N)=O	> 4 mM (inactive)
Clc1ccc(-c2nnc3ccccn23)cc1	> 4 mM (inactive)
CC(=O)N1CC2(C)CN(C(C)=O)CC(C)(C1)C2	> 4 mM (inactive)
Cc1nc2ccccc2c(=O)n1NC(=O)Nc1ccccc1	> 4 mM (inactive)
Oc1cc2c(cc1O)C1c3ccc(O)c(O)c3OCC1(O)C2 (centres undefined)	> 4 mM (inactive)
c1coc(CNc2ncnc3nc[nH]c23)c1	> 4 mM (inactive)
S=c1[nH]cnc2sccc12	> 4 mM (inactive)
N#CCCn1ccnc1-c1ccccc1	> 4 mM (inactive)
COc1cccc(/C=C/C(=O)O)c1C(C)C	> 4 mM (inactive)
CC(=O)Nc1ccc(N2C(=O)C=CC2=O)cc1C	> 4 mM (inactive)
COc1ccccc1/C=C/CN1CCOCC1	> 4 mM (inactive)
NC1CCN(Cc2ccccc2)CC1	> 4 mM (inactive)
C=CCNC(=O)c1ccc(Cl)cc1Cl	> 4 mM (inactive)
CNCc1ccco1	> 4 mM (inactive)
